This is an account of results in patent US20180127748A1, “METHODS RELATING TO THE PREVENTION AND TREATMENT OF DRUG RESISTANCE” (THE GENERAL HOSPITAL CORPORATION, priority 2015, published 2018).

In experiment [1] the test system is RPE cells. Nature of the experiment: Screen of chemical and metabolic stresses for site-specific copy gain (FISH). Format: cell-based, human. The note with it: 24 h treatment: 60 μM H2O2, 2 μg/ml Tunicamycin, 2 mM DTT, 5 mM NAC, 1 μM DMNQ. On the procedure:
Cells were treated with the following chemical and metabolic stresses for 24 hours at doses used in the literature: 2 μg/ml Tunicamycin (TU, Abcam), 60 μM H2O2(Thermo Fisher Scientific), reduced-serum DMEM (0.1% FBS), Glucose-free DMEM (No Gluc, GIBCO), 2 mM DTT (Sigma), 5 mM N-acetyl Cysteine (NAC, Sigma), and 1 μM 2,3-Dimethoxy-1,4-naphthoquinone (DMNQ, Sigma). For heat shock (HS) treatment, cells were incubated at 43° C. for 30 minutes and returned to 37° C. for 24 hours prior to collection.
FISH was performed as described in (Manning et al. 2010; Black et al. 2013). For RPE cells, copy gain was scored as any cell with 3 or more distinct foci. Approximately 100 cells for each replicate were scored for all experiments. All FISH experiments include at least 2 biological replicates. For each experiment at least one replicate includes FACS and western blot from the same cells used for FISH. For knockdown experiments, at least two different siRNA were used for each target. Results are presented as the average from both of the independent siRNAs.
FISH was performed as described in (Manning et al. 2010; Black et al. 2013). Probes for 1q12h, 1q telomere, chromosome 8 centromere (alpha satellite), and X centromere (alpha satellite) were purchased from Rainbow Scientific. Probes for Zebrafish BCL9 (CH73-15J19) and Zebrafish IGBP1 (CH73-223D24) were purchased as BAC clones from Children's Hospital Oakland Research Institute (CHORI BacPac) clone repository. Probes for 1q21.2 (BCL9) and 1q23.3 were purchased from Agilent (SureFISH). BACS were prepared utilizing PureLink HiPure™ Plasmid Filter Maxiprep kit (Life Technologies) using the recommended modified wash buffer. Probes were nick translated (Abbot Molecular Kit) in the presence of fluorescently labeled dTTP (Enzo Life Science). Images of multiple planes of fields of nuclei were acquired on an Olympus IX81™ Spinning Disk Microscope and analyzed using Slidebook 5.0™ software. We used a conservative scoring metric for copy gain. Any foci that were touching were scored as a single copy to prevent increased numbers due to normally replicated foci. For RPE cells, copy gain was scored as any cell with 3 or more distinct foci. For 293T cells, copy gain was scored for any cell with 5 or more distinct foci. For UMRC2 cells, copy gain was scored for any cell with 6 or more foci. For SK-N-AS cells, copy gain was scored for any cell with 5 or more foci. For MDA-MB-468 cells, copy gain was scored for any cell with 5 or more foci. For MDA-MB-231 cells, copy gain was scored for any cell with 7 or more foci. Approximately 100 cells for each replicate were scored for all experiments. All FISH experiments include at least 2 biological replicates. For each experiment, at least one replicate includes FACS and western blot from the same cells used for FISH. For knockdown experiments, at least two different siRNA were used for each target. Results are presented as the average from both of the independent siRNAs.

Another experiment has as its system KDM4A. Nature of the experiment: Western blot of KDM4A protein levels in hypoxia. Format: cell-based, human. The note with it: RPE cells, 1% O2; for KDM4A stabilization / protein levels in hypoxia: 2 mM succinate. On the procedure:
Western blots were performed as in (Black et al. 2010).
Western Blots. Western blots were performed as in (Black et al. 2010). Briefly, adherent cells were either scraped directly into PBS, or washed with PBS, trypsinized and collected by centrifuging at 2,000 RPM for 5 minutes. For preparation of whole-cell lysates, cell pellets were washed once in ice-cold PBS and resuspended in RIPA lysis buffer [50 mM Tris pH 7.4, 150 mM NaCl, 0.25% Sodium Deoxycholate, 1% NP40, 1 mM EDTA, 10% Glycerol] supplemented with cOmplete protease inhibitor and PhosSTOP phosphatase inhibitor cocktails (Roche). Cells were lysed on ice for 15 minutes and immediately frozen at −80° C. for 10 minutes. Lysates were subsequently sonicated at 70% amplitude for 15 minutes in a QSonica Q700 sonicator and cleared of cell debris by centrifuging at 12,000 RPM for 15 minutes, before being analyzed by western blotting. For HIF1α and HIF2a expression, adherent cells were washed twice with ice-cold PBS and scraped directly in warmed 1× Laemmli buffer. Samples were sonicated at 70% amplitude for 15 minutes in a QSonica Q700™ and boiled at 95° C. for 10 minutes immediately prior to western blotting.

A further experiment deals with KDM5A (Homo sapiens, UniProt P29375). The following applies: Wang et al. 2013; cited from earlier work.
KDM5A, sequence (P29375 whole entry, species assumed): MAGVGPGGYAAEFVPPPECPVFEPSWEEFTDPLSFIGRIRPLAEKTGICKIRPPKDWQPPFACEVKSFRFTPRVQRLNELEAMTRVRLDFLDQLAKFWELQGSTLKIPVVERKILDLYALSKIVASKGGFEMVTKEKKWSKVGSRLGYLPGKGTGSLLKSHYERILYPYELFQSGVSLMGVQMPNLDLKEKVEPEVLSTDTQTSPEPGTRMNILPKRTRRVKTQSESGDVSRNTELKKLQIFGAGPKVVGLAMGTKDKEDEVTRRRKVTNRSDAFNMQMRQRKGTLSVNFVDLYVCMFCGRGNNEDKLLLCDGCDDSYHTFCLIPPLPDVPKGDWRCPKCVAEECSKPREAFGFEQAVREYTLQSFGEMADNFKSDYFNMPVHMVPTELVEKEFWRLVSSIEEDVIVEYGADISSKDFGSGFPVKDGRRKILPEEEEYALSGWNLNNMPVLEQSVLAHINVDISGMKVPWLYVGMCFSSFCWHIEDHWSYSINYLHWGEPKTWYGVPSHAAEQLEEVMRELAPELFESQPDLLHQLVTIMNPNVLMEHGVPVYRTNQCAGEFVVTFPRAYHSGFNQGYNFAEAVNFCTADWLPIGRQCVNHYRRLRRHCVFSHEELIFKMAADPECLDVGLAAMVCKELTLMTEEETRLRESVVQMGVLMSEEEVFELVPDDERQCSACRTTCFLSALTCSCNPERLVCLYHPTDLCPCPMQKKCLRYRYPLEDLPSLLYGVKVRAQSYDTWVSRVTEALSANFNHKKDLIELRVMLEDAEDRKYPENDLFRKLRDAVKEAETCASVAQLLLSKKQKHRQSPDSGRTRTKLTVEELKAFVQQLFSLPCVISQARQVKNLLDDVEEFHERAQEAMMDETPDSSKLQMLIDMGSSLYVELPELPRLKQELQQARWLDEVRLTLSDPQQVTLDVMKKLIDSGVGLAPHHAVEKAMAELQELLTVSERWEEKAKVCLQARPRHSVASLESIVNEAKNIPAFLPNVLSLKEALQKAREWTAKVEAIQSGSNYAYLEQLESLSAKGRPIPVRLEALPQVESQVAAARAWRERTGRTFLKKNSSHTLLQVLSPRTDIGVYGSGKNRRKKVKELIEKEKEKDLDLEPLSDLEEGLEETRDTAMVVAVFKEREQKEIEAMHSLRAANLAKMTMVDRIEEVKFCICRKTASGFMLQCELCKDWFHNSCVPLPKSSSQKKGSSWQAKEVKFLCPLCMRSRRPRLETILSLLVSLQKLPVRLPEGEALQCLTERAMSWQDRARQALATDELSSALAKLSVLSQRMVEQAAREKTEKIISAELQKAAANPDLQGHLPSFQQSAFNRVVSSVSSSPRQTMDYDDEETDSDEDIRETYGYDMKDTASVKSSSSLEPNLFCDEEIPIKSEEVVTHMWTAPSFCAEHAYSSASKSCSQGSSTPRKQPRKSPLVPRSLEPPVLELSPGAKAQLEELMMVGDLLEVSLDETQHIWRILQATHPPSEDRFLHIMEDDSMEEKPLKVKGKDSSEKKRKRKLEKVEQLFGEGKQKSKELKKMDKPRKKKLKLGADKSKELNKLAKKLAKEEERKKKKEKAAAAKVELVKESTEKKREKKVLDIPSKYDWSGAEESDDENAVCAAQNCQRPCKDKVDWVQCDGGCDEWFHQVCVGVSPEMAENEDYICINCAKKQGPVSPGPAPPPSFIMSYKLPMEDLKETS
Experiment [2] has as its system RPE cells. Kind of experiment: Cell cycle analysis by flow cytometry. Format: cell-based, human. The note with it: for cell cycle progression in hypoxia: 2 mM succinate. Here is the method:
Asynchronously growing, or G1/S arrested cells were prepared and fixed as in (Black et al. 2010). Cells were stained with 10 μM EdU for 1 hour prior to collection. Cell cycle was analyzed by PI staining or EdU incorporation using Click-IT EdU™ Flow Cytometry Assay Kit (Life Technologies). Flow cytometry of CD4+ T cells and cell cycle distribution were analyzed using a BD FACS ARIA II™.

In experiment [3] the test system is RPE cells. Nature of the experiment: FISH for hypoxia-dependent site-specific copy gain. Format: cell-based, human. On the procedure:
Cells were plated onto culture dishes and allowed to adhere for 20-24 hours in normoxia (5% CO2, 21% O2, and 74% N2). For hypoxic treatment, cells were maintained in a HERA™ Cell 150 incubator (Thermo Scientific) flushed with 5% CO2, 1% O2, and balanced with N2 for the duration of the experiment. Incubator calibrations and verifications were carried out by Bianchi Associates Calibrations/Verifications.
For G1/S synchronization, cells were treated with 2 mM hydroxyurea (HU, Sigma) for 20 hours. To release, cells were washed twice with culture medium pre-conditioned in normoxia or hypoxia, and supplied with fresh pre-conditioned media. For JIB-04 treatment, normoxic cells were pre-treated with 62.5 nM JIB-04 (Xcessbio) for 24 hours, and then treated again with JIB-04 and either transferred to 1% O2 or maintained in normoxia for an additional 24 hours. […]
FISH was performed as described in (Manning et al. 2010; Black et al. 2013). For RPE cells, copy gain was scored as any cell with 3 or more distinct foci. Approximately 100 cells for each replicate were scored for all experiments. […]
FISH was performed as described in (Manning et al. 2010; Black et al. 2013). […] Images of multiple planes of fields of nuclei were acquired on an Olympus IX81™ Spinning Disk Microscope and analyzed using Slidebook 5.0™ software. […] Any foci that were touching were scored as a single copy to prevent increased numbers due to normally replicated foci. For RPE cells, copy gain was scored as any cell with 3 or more distinct foci. For 293T cells, copy gain was scored for any cell with 5 or more distinct foci. For UMRC2 cells, copy gain was scored for any cell with 6 or more foci. For SK-N-AS cells, copy gain was scored for any cell with 5 or more foci. For MDA-MB-468 cells, copy gain was scored for any cell with 5 or more foci. For MDA-MB-231 cells, copy gain was scored for any cell with 7 or more foci. Approximately 100 cells for each replicate were scored for all experiments. […]

A further experiment deals with KDM4 family. The following applies: Wang et al. 2013; cited from earlier work.
The next experiment concerns the target KDM6B (Homo sapiens, UniProt O15054). The note with it: Wang et al. 2013; cited from earlier work.
The subject of another experiment is JmjC-containing proteins. The following applies: Smith et al. 2007; Black et al. 2012; cited from earlier work.

Entries after “also recorded” stand apart in the source; their conditions may differ.

KDM6B, sequence (O15054 whole entry, species assumed): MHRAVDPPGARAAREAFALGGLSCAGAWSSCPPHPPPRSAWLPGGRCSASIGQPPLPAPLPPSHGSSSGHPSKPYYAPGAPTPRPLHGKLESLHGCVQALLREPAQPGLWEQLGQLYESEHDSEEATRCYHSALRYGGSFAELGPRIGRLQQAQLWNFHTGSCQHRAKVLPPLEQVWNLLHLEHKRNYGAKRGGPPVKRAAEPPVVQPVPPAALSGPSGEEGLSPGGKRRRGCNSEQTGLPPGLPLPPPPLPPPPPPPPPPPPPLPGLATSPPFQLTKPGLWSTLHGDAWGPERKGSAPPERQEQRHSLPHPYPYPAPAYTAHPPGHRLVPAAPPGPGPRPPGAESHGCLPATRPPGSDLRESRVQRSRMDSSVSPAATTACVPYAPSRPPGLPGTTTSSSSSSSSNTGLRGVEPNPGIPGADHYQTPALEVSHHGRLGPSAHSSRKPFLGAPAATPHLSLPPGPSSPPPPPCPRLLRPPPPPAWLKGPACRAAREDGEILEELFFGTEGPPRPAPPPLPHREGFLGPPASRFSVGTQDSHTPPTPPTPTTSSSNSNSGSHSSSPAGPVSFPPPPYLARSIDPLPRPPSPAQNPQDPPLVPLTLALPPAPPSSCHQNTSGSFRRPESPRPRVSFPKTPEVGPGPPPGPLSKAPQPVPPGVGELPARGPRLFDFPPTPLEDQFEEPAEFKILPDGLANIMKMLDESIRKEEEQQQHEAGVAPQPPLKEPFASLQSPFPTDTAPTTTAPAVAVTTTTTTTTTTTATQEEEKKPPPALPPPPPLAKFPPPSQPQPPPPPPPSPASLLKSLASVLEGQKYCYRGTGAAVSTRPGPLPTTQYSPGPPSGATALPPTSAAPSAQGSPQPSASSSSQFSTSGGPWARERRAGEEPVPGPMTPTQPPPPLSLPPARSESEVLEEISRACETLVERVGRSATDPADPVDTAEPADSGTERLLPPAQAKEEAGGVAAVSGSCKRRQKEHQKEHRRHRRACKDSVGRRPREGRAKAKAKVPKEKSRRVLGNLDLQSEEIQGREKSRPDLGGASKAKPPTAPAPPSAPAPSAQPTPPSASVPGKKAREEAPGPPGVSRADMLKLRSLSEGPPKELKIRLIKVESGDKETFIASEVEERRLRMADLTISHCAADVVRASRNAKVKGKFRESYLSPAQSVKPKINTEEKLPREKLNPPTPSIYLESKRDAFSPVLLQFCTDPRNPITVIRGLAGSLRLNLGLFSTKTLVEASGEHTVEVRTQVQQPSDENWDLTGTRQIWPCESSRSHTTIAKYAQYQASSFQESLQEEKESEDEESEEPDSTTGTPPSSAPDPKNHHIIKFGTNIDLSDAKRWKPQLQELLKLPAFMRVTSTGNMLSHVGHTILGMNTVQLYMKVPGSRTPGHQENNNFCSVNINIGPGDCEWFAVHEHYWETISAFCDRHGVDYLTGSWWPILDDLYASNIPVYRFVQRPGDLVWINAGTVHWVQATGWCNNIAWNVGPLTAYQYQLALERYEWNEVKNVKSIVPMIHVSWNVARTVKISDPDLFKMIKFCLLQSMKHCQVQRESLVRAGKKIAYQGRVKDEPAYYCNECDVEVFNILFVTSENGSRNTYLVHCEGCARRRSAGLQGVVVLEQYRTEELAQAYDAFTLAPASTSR

On to `COC1=C(OC)C(=O)c2ccccc2C1=O` [DMNQ, 2,3-Dimethoxy-1,4-naphthoquinone], for which the “site-specific copy gain (FISH for 1q12h, Chr 8, 1q23.3, 1q21.2)” value (“site-specific copy gain” for short) in the experiment with RPE cells [1] was “did not induce site-specific copy gain; also recorded: do not induce site-specific copy gains”.
With `O[C@@H](CS)[C@@H](O)CS` [DTT], in the experiment on RPE cells [1], the “site-specific copy gain” value is recorded as “did not induce site-specific copy gain; also recorded: do not induce site-specific copy gains”.
Regarding `OO` [H2O2], the “site-specific copy gain” value with RPE cells [1] is “does not promote copy gain”.
Take `Clc1ccc(N/N=C(\c2ccccc2)c2ccccn2)nc1` [JIB-04]: the “KDM4A protein levels in hypoxia” value in the experiment with KDM4A (JIB-04 62.5 nM) is reported as “did not substantially alter; also recorded: does not alter KDM4A protein levels”. Besides, at KDM5A, the “inhibition of KDM5A” value was “inhibits”. Moreover, the “cell cycle profiles in hypoxia” value with RPE cells [2] (JIB-04 62.5 nM, 1% O2) is given as “did not substantially alter; also recorded: no difference in cell cycle phases”. Further, the “hypoxia-dependent copy gain of 1q12h (FISH)” value in the experiment with RPE cells [3] (62.5 nM JIB-04 pre-treated 24 h, treated again, 1% O2 24 h) is on record as “significantly reduced; also recorded: blocks hypoxia-dependent copy gain”. For the same compound, the “inhibition of the KDM4 family” value in the experiment with KDM4 family is listed as “inhibits”. Also, the “inhibition of KDM6B” value on KDM6B is listed as “inhibits”.
Take `CC(=O)N[C@@H](CS)C(=O)O` [N-Acetyl Cysteine, N-acetyl Cysteine]: the “site-specific copy gain” value is on record as “did not induce site-specific copy gain” in the experiment with RPE cells [1] and “do not induce site-specific copy gains” in the experiment on RPE cells [1] (listed as N-acetyl Cysteine).
`O=C(O)CCC(=O)O` [succinate]: the figures for the “KDM4A stabilization / protein levels in hypoxia” value in the experiment with KDM4A and with KDM4A (listed as Succinate) were “does not alter KDM4A protein levels” and “did not alter”, respectively. In addition, the “inhibition of JmjC-containing proteins” value in the experiment on JmjC-containing proteins is given as “can be inhibited”. Further, the “cell cycle progression in hypoxia” value with RPE cells [2] (1% O2) was “no difference in cell cycle phases”; in the experiment with RPE cells [2] (1% O2, listed as Succinate) it was “did not alter”. Also, the “hypoxia-dependent copy gain of 1q12h (FISH)” value is on record as “can be suppressed” in the experiment on RPE cells [3] (2 mM succinate, 48 h normoxia then 1% O2 24 h) and “sufficient to abrogate” with RPE cells [3] (2 mM succinate, 48 h normoxia then 1% O2 24 h, listed as Succinate).
Tunicamycin: the “site-specific copy gain” value in the experiment on RPE cells [1] was “does not promote copy gain”.
